# According to US12109202B2, “Fixed dose combination of cholinesterase inhibitor and a quaternary ammonium antimuscarinic agent to treat neurodegenerative cognitive disorders” (priority 2021, dated 2024):
# Experiments:
# [1] = Phase 1 trial, rivastigmine and trospium administrations: rivastigmine blood serum concentration time profile (FIG. 2B); conditions: 6 mg rivastigmine fed state one hour after 20 mg trospium fasting (subject 1008) versus simultaneous fasting (1001, 1002, 1005)
# Procedure: Patients 1001, 1002, and 1005 were administered trospium and rivastigmine simultaneously in a fasting state. Subject 1008 was administered trospium and rivastigmine in fasting and fed states, respectively.
# [2] = Phase 1 trial, rivastigmine and glycopyrrolate administrations: rivastigmine blood serum concentration time profile (FIG. 2A)
# Text: The serum rivastigmine levels were obtained over the course of twelve hours post-administration.
smiles,measurement,setting,value
CCN(C)C(=O)Oc1cccc([C@H](C)N(C)C)c1 [rivastigmine],"peak rivastigmine blood serum level, taken with food",[1],attenuated peak rivastigmine levels
same,rivastigmine blood serum concentration (time profile),"[2]; patient 1006, co-formulated drug delivery element with glycopyrrolate taken in a fasting state, 12 hours post dose",10 ng/mL
same,"adverse effects, separate versus simultaneous administration","[2]; patients 1010 and 1011, glycopyrrolate fasted, rivastigmine with food one hour later","reduced adverse effects, particularly nausea"
same,"peak rivastigmine serum concentration, separate versus simultaneous administration","[2]; patients 1010 and 1011, glycopyrrolate fasted, rivastigmine with food one hour later, compared with patients 1003, 1004 coadministered fasted",delayed peak serum concentration associated with lower peak rivastigmine levels
